Test [1] has as its system wheals induced by intradermal injections of histamine. Briefly: reduction of wheals induced by intradermal injections of histamine in guinea pigs. It is filed as in vivo, guinea pig. As to conditions: Cavia porcellus, po, 1 h, orally administered one hour prior to histamine injection, intradermal injections of 1γ each of histamine, read-out: ED50 (amount required to reduce by 50% wheals induced by intradermal histamine).

The subject of test [2] is aerosol antigen induced bronchial spasms and death. Briefly: prevention of aerosol antigen induced bronchial spasms and death in the guinea pig. It counts as in vivo. Particulars: Cavia porcellus, po, orally, read-out: minimal amount required to prevent aerosol antigen induced bronchial spasms and death. The text has this:
The minimal amounts of the compounds of Examples 5 and 9 required to prevent aerosol antigen induced bronchial spasms and death in the guinea pig are respectively 4.0 and 8.0 milligrams per kilogram of body weight orally.

Counter-ions that a name gives are not always drawn.

One may read the ED50 as the midpoint of the dose-response relation.

For the molecule `Fc1ccc(C=CCCN2CCC(C(c3ccccc3)c3ccccc3)CC2)cc1` [Example 2, 4-(Diphenylmethyl)-1-[4-(p-fluorophenyl)-3-butenyl]-piperidine hydrochloride hemihydrate], the ED50 in test [1] was 14.4 mg/kg.

For `Cl.O=C(CCCN1CCC(=C(c2ccccc2)c2ccccc2)CC1)c1cccs1` [Example 5, 4-[4-(Diphenylmethylene)piperidino]-1-(2-thienyl)-1-butanone hydrochloride], in test [1], the ED50 is 3.1 mg/kg. For the same molecule, the minimal effective dose in test [2] turned out to be 4 mg/kg.

As for `CC(C)(C)c1ccc(C(=O)CCCN2CCC(=C(c3ccccc3)c3ccccc3)CC2)cc1.Cl` [Example 9, 4'-tert-Butyl-4-[4-(diphenylmethylene)piperidino]butyrophenone hydrochloride], the ED50 in test [1] was determined as 4 mg/kg. Also, the minimal effective dose in test [2] was determined as 8 mg/kg.

Values taken from patent US4180583A, “Olefinic 4-substituted piperidino derivatives as therapeutics” (Richardson-Merrell Inc., priority 1978, dated 1979).
